From PubChem BioAssay AID2060505 (Molecular Pharmacology Branch, DTP, NCI, 2025)

Tested on: 633275-114-R-J1-PDC complex spheroids, viability
Assay: Anticancer human tumor 633275-114-R-J1-PDC patient-derived endometrial adenocarcinoma cell line growth inhibition [GQUAD]
Conditions: for IC50: curve of first compound; for viability, T/C: stronger effect = lower value; active = viability on the fitted dose curve at most 10% of control; inactive = the rest
From the text: DNA G-quadruplex Stabilizer Agents in Combinations in Complex Spheroids
A high-throughput screen of multi-cell type tumor spheroids was designed to identify active combinations of DNA G-quadruplex stabilizer agents and targeted small molecules. Complex spheroids include a stromal component modeled by human endothelial cells (HUVEC) and fibroblasts modeled by human mesenchymal stem cells (MSCs). The concentration ranges selected for each drug and investigational agent were based upon clinically achievable concentrations if the clinical Cmax of the agent was known.
Compounds. The drugs and investigational agents: pidnarulex (CX-5461; NSC782164), APTO-253 (NSC789042), BRACO-19 (NSC847499), peposertib (NSC802822), ceralasertib (NSC780249), elimusertib (NSC800525), camonsertib (NSC841442), AZD-1390 (NSC803789), olaparib (NSC753686), talazoparib (NSC767125), ART-558 (NSC835418), sotorasib (NSC818433), MRTX-1133 (NSC836407), SN-38 (NSC673596), topotecan (NSC609699), etoposide (NSC141540), doxorubicin (NSC123127), gemcitabine (NSC613327), 5-fluorouracil (NSC19893), paclitaxel (NSC125973), vemurafenib (NSC761431), panobinostat (NSC761190), R-306465 (JNJ-16241199; NSC773264), adavosertib (NSC754352), TP-3654 (NSC805149), carboplatin (NSC241240), KSQ-4279 (NSC840948), and staurosporine (NSC755774) were obtained from the National Cancer Institute (NCI) Developmental Therapeutics Program Chemical Repository (34). The FDA-approved anticancer drug set is available from the NCI Developmental Therapeutics Program. […] The stock solutions were prepared in dimethyl sulfoxide (DMSO, Sigma-Aldrich, St. Louis, MO, cat. D2650) at 800-fold the tested concentration and stored at -70 degrees C prior to their use. All drugs and investigational agents were tested over a range starting from a high concentration at or near the clinical Cmax and decreasing in half-log increments. If the clinical Cmax for an agent had not been determined, the highest concentration tested was 10 microM.
2.3 Cell Culture. All cells were maintained in an incubator at 37 degrees C and 5% CO2 with 95% humidity. The PDC lines were cultured according to standard operating procedures established by the NCI PDMR. All PDCs were thawed and cultured in Matrigel-coated flasks prepared with a working solution of 1X Ham's F-12 nutrient mix, without supplementation (Invitrogen, cat. 11765054), 100 U/mL penicillin-streptomycin (Invitrogen, cat. 15140122), and 2.5% Matrigel (Corning Inc., cat. 354248) for the first three passages. The 857933-349-R-J2-PDC line was cultured in 6C/Colon 1B media, which includes advanced DMEM/F-12 (Thermo Fisher Scientific, cat. 12634028), 10 mM HEPES (Thermo Fisher Scientific, cat. 15630080), 1X GlutaMAX supplement (Thermo Fisher Scientific, cat. 35050061), 0.1 mg/mL primocin (InvivoGen, cat. ant-pm-2), 10% defined fetal bovine serum, heat inactivated (HyClone Laboratories Inc., cat. SH30070.03HI), 50% L-WRN conditioned media (ATCC, cat. CRL-3276), 1.25 mM N-Acetyl-L-cysteine (Sigma-Aldrich, cat. A9165), 10 mM nicotinamide (Sigma-Aldrich, cat. N0636), 1X B-27 supplement (Thermo Fisher Scientific, cat. 17504044), 1X N-2 supplement (Thermo Fisher Scientific, cat. 17502048), 10 microM Y-27632 dihydrochloride (Tocris Bioscience, cat. 1254), and 50 ng/mL human EGF recombinant protein (Thermo Fisher Scientific, cat. PHG0311). The 485176-168-R4-J1-PDC line was cultured in Panc media, which includes all 6C/Colon 1B media components plus 100 ng/mL human FGF-10 (Thermo Fisher Scientific, cat. 100-26), 500 nM SB-431542 (Selleckchem, cat. S1067), and gastrin (Tocris, cat. 3006).
[…]

[1] = second compound 0.0316 µM, first compound 0.0316 µM
[2] = second compound 0.0316 µM, first compound 0.1 µM
[3] = second compound 0.0316 µM, first compound 0.316 µM
[4] = second compound 0.0316 µM, first compound 1 µM
[5] = second compound 0.0316 µM, first compound 3.16 µM
[6] = second compound 0.0316 µM, first compound 10 µM
[7] = second compound 0.1 µM, first compound 0.0316 µM
[8] = second compound 0.1 µM, first compound 0.1 µM
[9] = second compound 0.1 µM, first compound 0.316 µM
[10] = second compound 0.1 µM, first compound 1 µM
[11] = second compound 0.1 µM, first compound 3.16 µM
[12] = second compound 0.1 µM, first compound 10 µM
[13] = second compound 0.316 µM, first compound 0.0316 µM
[14] = second compound 0.316 µM, first compound 0.1 µM
[15] = second compound 0.316 µM, first compound 0.316 µM
[16] = second compound 0.316 µM, first compound 1 µM
[17] = second compound 0.316 µM, first compound 3.16 µM
[18] = second compound 0.316 µM, first compound 10 µM
[19] = second compound 1 µM, first compound 0.0316 µM
[20] = second compound 1 µM, first compound 0.1 µM
[21] = second compound 1 µM, first compound 0.316 µM
[22] = second compound 1 µM, first compound 1 µM
[23] = second compound 1 µM, first compound 3.16 µM
[24] = second compound 1 µM, first compound 10 µM
[25] = second compound 3.16 µM, first compound 0.0316 µM
[26] = second compound 3.16 µM, first compound 0.1 µM
[27] = second compound 3.16 µM, first compound 0.316 µM
[28] = second compound 3.16 µM, first compound 1 µM
[29] = second compound 3.16 µM, first compound 3.16 µM
[30] = second compound 3.16 µM, first compound 10 µM
[31] = second compound 10 µM, first compound 0.0316 µM
[32] = second compound 10 µM, first compound 0.1 µM
[33] = second compound 10 µM, first compound 0.316 µM
[34] = second compound 10 µM, first compound 1 µM
[35] = second compound 10 µM, first compound 3.16 µM
[36] = second compound 10 µM, first compound 10 µM
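Also: spheroids exposed to the agents for seven days.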
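For viability, T/C in this document: percent of DMSO vehicle control viability which is 100%.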

C=CCn1c(=O)c2cnc(Nc3ccc(N4CCN(C)CC4)cc3)nc2n1-c1cccc(C(C)(C)O)n1 + Cc1[nH]c2ccc(F)cc2c1-c1nc2c3cccnc3c3ncccc3c2[nH]1
577 nM: IC50 (second compound 1 µM)
623 nM: IC50 (second compound 0.316 µM)
361 nM: IC50 (second compound 3.16 µM)
inactive: viability, T/C [1] 105% | viability, T/C [2] 100% | viability, T/C [3] 73.3% | viability, T/C [4] 35.1% | viability, T/C [5] 22.2% | viability, T/C [6] 16.2% | viability, T/C [7] 103% | viability, T/C [8] 97.9% | viability, T/C [9] 73.9% | viability, T/C [10] 40.4% | viability, T/C [11] 22.6% | viability, T/C [12] 17.4% | viability, T/C [13] 101% | viability, T/C [14] 93.9% | viability, T/C [15] 67.9% | viability, T/C [16] 37.2% | viability, T/C [17] 21.8% | viability, T/C [18] 16% | viability, T/C [19] 87.1% | viability, T/C [20] 97.8% | viability, T/C [21] 67.3% | viability, T/C [22] 33.3% | viability, T/C [23] 19.3% | viability, T/C [24] 15.6% | viability, T/C [25] 69.3% | viability, T/C [26] 69.4% | viability, T/C [27] 51.5% | viability, T/C [28] 29.8% | viability, T/C [29] 18.6% | viability, T/C [30] 14.8% | viability, T/C [31] 58.2% | viability, T/C [32] 55% | viability, T/C [33] 43.4% | viability, T/C [34] 26.2% | viability, T/C [35] 17.9% | viability, T/C [36] 16.6%
645 nM: IC50 (second compound 0.0316 µM)
720 nM: IC50 (second compound 0.1 µM)
165 nM: IC50 (second compound 10 µM)

CC(C)n1c(=O)n(C)c2cnc3cc(F)c(-c4ccc(OCCCN5CCCCC5)nc4)cc3c21 + Cc1cnc(CNC(=O)c2c(=O)c3ccc(N4CCCN(C)CC4)nc3n3c2sc2ccccc23)cn1
inactive: viability, T/C [1] 58% | viability, T/C [2] 58.5% | viability, T/C [3] 52.9% | viability, T/C [4] 52.9% | viability, T/C [5] 56.4% | viability, T/C [6] 54% | viability, T/C [7] 44.2% | viability, T/C [8] 45.1% | viability, T/C [9] 42.9% | viability, T/C [10] 42.2% | viability, T/C [11] 49.5% | viability, T/C [12] 47.2% | viability, T/C [13] 46.6% | viability, T/C [14] 42.1% | viability, T/C [15] 40.9% | viability, T/C [16] 41.6% | viability, T/C [17] 46.4% | viability, T/C [18] 39.4% | viability, T/C [19] 42.7% | viability, T/C [20] 37.1% | viability, T/C [21] 37.1% | viability, T/C [22] 43.5% | viability, T/C [23] 39.2% | viability, T/C [24] 33.6% | viability, T/C [25] 32.2% | viability, T/C [26] 34.5% | viability, T/C [27] 33.8% | viability, T/C [28] 32.3% | viability, T/C [29] 33.9% | viability, T/C [30] 25.2% | viability, T/C [31] 31.3% | viability, T/C [32] 32% | viability, T/C [33] 32.2% | viability, T/C [34] 29.1% | viability, T/C [35] 31.4% | viability, T/C [36] 9.52%
> 10000 nM: IC50 (second compound 0.0316 µM)
< 31.6 nM: IC50 (second compound 0.1 µM) | IC50 (second compound 0.316 µM) | IC50 (second compound 1 µM) | IC50 (second compound 3.16 µM) | IC50 (second compound 10 µM)

CC1COCCN1c1cc(C2(O)CC3CCC(C2)O3)c2cnn(-c3ccn[nH]3)c2n1 (stereo unspecified) + Cc1cnc(CNC(=O)c2c(=O)c3ccc(N4CCCN(C)CC4)nc3n3c2sc2ccccc23)cn1
inactive: viability, T/C [1] 37.6% | viability, T/C [2] 31.2% | viability, T/C [3] 25% | viability, T/C [4] 19.6% | viability, T/C [5] 12.4% | viability, T/C [7] 38.3% | viability, T/C [8] 28.8% | viability, T/C [9] 24.3% | viability, T/C [10] 17.5% | viability, T/C [11] 11.4% | viability, T/C [13] 36.4% | viability, T/C [14] 33% | viability, T/C [15] 25% | viability, T/C [16] 15.8% | viability, T/C [17] 11.2% | viability, T/C [19] 29.6% | viability, T/C [20] 27.9% | viability, T/C [21] 24.2% | viability, T/C [22] 14.8% | viability, T/C [23] 10.2% | viability, T/C [25] 31.6% | viability, T/C [26] 25.4% | viability, T/C [27] 19.5% | viability, T/C [28] 12.9% | viability, T/C [31] 29.4% | viability, T/C [32] 24.4% | viability, T/C [33] 17% | viability, T/C [34] 12.7%
active: viability, T/C [6] 8.78% | viability, T/C [12] 7.39% | viability, T/C [18] 6.81% | viability, T/C [24] 4.76% | viability, T/C [29] 9.19% | viability, T/C [30] 5.97% | viability, T/C [35] 10.2% | viability, T/C [36] 0.18%
< 31.6 nM: IC50 (second compound 0.0316 µM) | IC50 (second compound 0.1 µM) | IC50 (second compound 0.316 µM) | IC50 (second compound 1 µM) | IC50 (second compound 3.16 µM) | IC50 (second compound 10 µM)
